# Reference: US9593305B2, “Differentiation of pluripotent stem cells” (Janssen Biotech, Inc., priority 2008, dated 2017)
# Test system: H1 human embryonic stem cells
# Assay: Step-wise differentiation, RT-PCR of differentiation markers (Example 17, Table 15)
# Assay type: cell-based
# Method: Stock cultures of human embryonic stem cells (H1 human embryonic stem cell line) were maintained in an undifferentiated, pluripotent state on reduced growth factor […]™ (BD Biosciences; Cat #356231)-coated dishes in MEF conditioned medium supplemented with 8 ng/ml bFGF (PeproTech Inc.; Cat #100-18B) with passage on average every four days. Passage was performed by exposing cell cultures to a solution of 1 mg/ml dispase (Invitrogen; Cat #17105-041) for 5 to 7 minutes at 37° C. followed by rinsing the monolayer with MEF conditioned culture medium and gentle scraping to recover cell clusters. Clusters were centrifuged at low speed to collect a cell pellet and remove residual dispase. Cell clusters were split at a 1:3 or 1:4 ratio for routine maintenance culture or a 1:1 ratio for immediate assay. All human ES cell lines were maintained at passage numbers less than 50 and routinely evaluated for normal karyotype and absence of mycoplasma.
# Cell clusters were evenly resuspended in MEF conditioned medium supplemented with 8 ng/ml bFGF and plated onto reduced growth factor […]™-coated 24-well, black wall culture plates (Arctic White; Cat #AWLS-303012) in volumes of 0.5 ml/well. Daily feeding was conducted by aspirating spent culture medium from each well and replacing with an equal volume of fresh medium. Plates were maintained at 37° C., 5% CO2 throughout assay.
# The assay was initiated by aspirating the culture medium from each well and adding back an aliquot (0.5 ml) of test medium. Test conditions for the first step of differentiation were conducted over a three-day period, feeding daily by aspirating and replacing the medium from each well with fresh test medium. On the first day of assay, 100 ng/ml activin A (PeproTech; Cat #120-14) or 100 ng/ml GDF-8 (R&D Systems, Cat #788-G8) was added to respective assay wells where each growth factor was diluted into RPMI-1640 medium (Invitrogen; Cat #: 22400) with 2% Albumin Bovine Fraction V, Fatty Acid Free (FAF BSA) (MP Biomedicals, Inc; Cat #152401). In some samples, 20 ng/ml Wnt3a (R&D Systems; Cat #1324-WN/CF) was also included. On the second day of assay, 100 ng/mlactivin A or 100 ng/ml GDF-8 was diluted into RPMI-1640 medium supplemented with 2% FAF BSA, omitting Wnt3a from all samples. In some test samples using GDF-8, Wnt3a was replaced with a given concentration of small molecule compound, added only on the first day of definitive endoderm differentiation. […] At the conclusion of the first step of differentiation, cells from some wells were harvested for flow cytometry analysis to evaluate levels of CXCR4, a marker of definitive endoderm formation. Additional wells were harvested for RT-PCR analysis to measure other markers of differentiation.
# At the conclusion of the first step of definitive endoderm differentiation, replicate sets of parallel wells from each treatment group were subjected to further step-wise differentiation. It is important to note that after the first differentiation step, all wells undergoing subsequent culture and differentiation received the same treatment. The protocol for this continuing differentiation is described below.
# Step 2 of the differentiation protocol was carried out over two days. Cells were fed daily by aspirating the medium from each well and replacing with a fresh aliquot (0.5 ml) of DMEM:F12 medium (Invitrogen; Cat #11330-032) containing 2% FAF BSA, 50 ng/ml FGF7 (PeproTech; Cat #100-19), and 250 nM cyclopamine-KAAD (Calbiochem; Cat #239804).
# Step 3 of the differentiation protocol was carried out over four days. […]
# [1] = Step 5, cells harvested at end of step, treatment given during step one
substance,measurement,setting,value
"GDF-8: growth factor GDF-8, also known as myostatin, member of the TGF-β family",RT-PCR CT Values AFP,Step 1,40.0
same,RT-PCR CT Values CD9,Step 1,25.5
same,RT-PCR CT Values CD99,Step 1,25.9
same,RT-PCR CT Values CDH,Step 1,22.3
same,RT-PCR CT Values CDH1,Step 1,25.2
same,RT-PCR CT Values CDX2,Step 1,40.0
same,RT-PCR CT Values CER1,Step 1,20.1
same,RT-PCR CT Values CXCR4,Step 1,24.6
same,RT-PCR CT Values FGF4,Step 1,34.9
same,RT-PCR CT Values FGF17,Step 1,22.1
same,RT-PCR CT Values FOXA2,Step 1,25.9
same,RT-PCR CT Values GAPDH,Step 1,21.6
same,RT-PCR CT Values GATA4,Step 1,27.5
same,RT-PCR CT Values GATA6,Step 1,24.8
same,RT-PCR CT Values GSC,Step 1,24.2
same,RT-PCR CT Values HLXB9,Step 1,25.3
same,RT-PCR CT Values KIT,Step 1,25.4
same,RT-PCR CT Values MIXL1,Step 1,30.6
same,RT-PCR CT Values NANOG,Step 1,25.0
same,RT-PCR CT Values OTX2,Step 1,24.3
same,RT-PCR CT Values POU5F1,Step 1,29.5
same,RT-PCR CT Values SOX7,Step 1,29.8
same,RT-PCR CT Values SOX17,Step 1,25.2
same,RT-PCR CT Values T,Step 1,32.9
same,RT-PCR CT Values ALB,Step 3,28.7
same,RT-PCR CT Values AMY2A,Step 3,30.4
same,RT-PCR CT Values ARX,Step 3,35.3
same,RT-PCR CT Values CDX2,Step 3,23.8
same,RT-PCR CT Values GAPDH,Step 3,18.0
same,RT-PCR CT Values GCG,Step 3,40.0
same,RT-PCR CT Values HNF4A,Step 3,23.6
same,RT-PCR CT Values INS,Step 3,40.0
same,RT-PCR CT Values ISL1,Step 3,28.5
same,RT-PCR CT Values MAFA,Step 3,33.6
same,RT-PCR CT Values MAFB,Step 3,27.2
same,RT-PCR CT Values NEUROD1,Step 3,30.3
same,RT-PCR CT Values NEUROG3,Step 3,28.7
same,RT-PCR CT Values NKX2-2,Step 3,30.3
same,RT-PCR CT Values NKX2-5,Step 3,34.4
same,RT-PCR CT Values NKX6-1,Step 3,35.0
same,RT-PCR CT Values PAX4,Step 3,32.4
same,RT-PCR CT Values PAX6,Step 3,24.8
same,RT-PCR CT Values PDX1,Step 3,25.5
same,RT-PCR CT Values PECAM,Step 3,30.0
same,RT-PCR CT Values POU3F4,Step 3,30.8
same,RT-PCR CT Values PTF1A,Step 3,34.2
same,RT-PCR CT Values SST,Step 3,29.5
same,RT-PCR CT Values ZIC1,Step 3,26.1
same,RT-PCR CT Values ALB,Step 4,25.5
same,RT-PCR CT Values AMY2A,Step 4,29.1
same,RT-PCR CT Values ARX,Step 4,29.8
same,RT-PCR CT Values CDX2,Step 4,24.6
same,RT-PCR CT Values GAPDH,Step 4,18.0
same,RT-PCR CT Values GCG,Step 4,31.3
same,RT-PCR CT Values HNF4A,Step 4,23.8
same,RT-PCR CT Values INS,Step 4,30.9
same,RT-PCR CT Values ISL1,Step 4,27.6
same,RT-PCR CT Values MAFA,Step 4,32.8
same,RT-PCR CT Values MAFB,Step 4,24.1
same,RT-PCR CT Values NEUROD1,Step 4,29.2
same,RT-PCR CT Values NEUROG3,Step 4,28.7
same,RT-PCR CT Values NKX2-2,Step 4,29.0
same,RT-PCR CT Values NKX2-5,Step 4,32.3
same,RT-PCR CT Values NKX6-1,Step 4,31.2
same,RT-PCR CT Values PAX4,Step 4,31.1
same,RT-PCR CT Values PAX6,Step 4,27.9
same,RT-PCR CT Values PDX1,Step 4,26.5
same,RT-PCR CT Values PECAM,Step 4,29.4
same,RT-PCR CT Values POU3F4,Step 4,29.4
same,RT-PCR CT Values PTF1A,Step 4,40.0
same,RT-PCR CT Values SST,Step 4,26.0
same,RT-PCR CT Values ZIC1,Step 4,22.8
same,RT-PCR CT Values ALB,Step 5,20.5
same,RT-PCR CT Values AMY2A,Step 5,28.2
same,RT-PCR CT Values ARX,Step 5,25.2
same,RT-PCR CT Values CDX2,Step 5,24.4
same,RT-PCR CT Values GAPDH,Step 5,17.4
same,RT-PCR CT Values GCG,Step 5,18.1
same,RT-PCR CT Values HNF4A,Step 5,22.9
same,RT-PCR CT Values INS,Step 5,17.7
same,RT-PCR CT Values ISL1,Step 5,24.3
same,RT-PCR CT Values MAFA,Step 5,31.8
same,RT-PCR CT Values MAFB,Step 5,23.3
same,RT-PCR CT Values NEUROD1,Step 5,24.2
same,RT-PCR CT Values NEUROG3,Step 5,30.1
same,RT-PCR CT Values NKX2-2,[1],25.9 CT
same,RT-PCR CT Values NKX2-5,[1],31.4 CT
same,RT-PCR CT Values NKX6-1,[1],26.6 CT
same,RT-PCR CT Values PAX4,[1],29.4 CT
same,RT-PCR CT Values PAX6,[1],26.6 CT
same,RT-PCR CT Values PDX1,[1],25.6 CT
same,RT-PCR CT Values PECAM,[1],29.7 CT
same,RT-PCR CT Values POU3F4,[1],27.8 CT
same,RT-PCR CT Values PTF1A,[1],29.5 CT
same,RT-PCR CT Values SST,[1],21.1 CT
same,RT-PCR CT Values ZIC1,[1],22.5 CT
